In one data set the test system is Sphaerotheca fuliginea. Briefly: Test Example 4: preventive efficacy against Sphaerotheca fuliginea on cucumber (comparison with Reference Compound A). Format: in vivo. The conditions noted are these: 500 ppm flowable, foliar spray on cucumber leaves, inoculated after spraying, 23° C., 12 days. As to the method: The control effect of the present compound was evaluated by visually observing the area of a lesion on a plant under test in investigation and comparing the area of a lesion in a non-treatment group and the area of a lesion in a group treated with the present compound. Sand loam was compacted in plastic pots, cucumbers (Ochiai Aonagafushinari) were seeded and grown in a greenhouse for 12 days. Then, each of Reference Compound A and Compound 182 was formulated into flowable formulations according to Formulation Example 6, then, diluted with water to provide prescribed concentration (500 ppm), and sprayed over the foliage so as to give sufficient adhesion on the surface of cucumber leaves. After spraying, the plants were air-dried, and inoculated with spores of Sphaerotheca fuliginea. After the inoculation, the cucumbers were placed at 23° C. for 12 days, and the control effect was examined. As a result, areas of lesions on the plant treated with Reference Compound A were in the range of 75% to 100% on those of the untreated groups, on the other hand, areas of lesions on the plant treated with Compound 182 was not greater than 1% of infested areas on those of the untreated groups.

The next data set concerns Botrytis cinerea. Put plainly: Test Example 3: preventive efficacy against Botrytis cinerea on cucumber (comparison with Reference Compound A). Format: in vivo. The conditions noted are these: 500 ppm flowable, foliar spray on cucumber cotyledons, inoculated after spraying, 12° C. humid, 4 days. As to the method: The control effect of the present compound was evaluated by visually observing the area of a lesion on a plant under test in investigation and comparing the area of a lesion in a non-treatment group and the area of a lesion in a group treated with the present compound. Sand loam was compacted in plastic pots, cucumbers (Ochiai Aonagafushinari) were seeded and grown in a greenhouse for 10 days. Then, each of Reference Compound A and Compound 182 was formulated into a flowable formulation according to Formulation Example 6, then, diluted with water to provide prescribed concentration (500 ppm), and sprayed over the foliage so as to give sufficient adhesion on the surface of cucumber cotyledons. After spraying, the plants were air-dried, and PDA medium containing spores of Botrytis cinerea were attached on cucumber cotyledons. After the inoculation, the cucumbers were placed in a humid condition at 12° C. for 4 days, and the control effect was examined. As a result, areas of lesions on the plant treated with Reference Compound A were in the range of 75% to 100% on those of the untreated groups, on the other hand, areas of lesions on the plant treated with Compound 182 was not greater than 1% of areas of lesions on those of the untreated groups.

Experimental findings from patent publication US7211545B2, “Imidazo[1,2-a]pyrimidine and fungicidal compositions containing thereof” (Sumitomo Chemical Company, Limited, priority 2001, dated 2007) are described below.

The melting point is the temperature of the solid-liquid transition.

The structures appear in SMILES notation.

The compound `CCCN(CCC)c1c(-c2c(F)cc(F)cc2F)c(Cl)nc2nccn12` [Compound 8, 5-(di-n-propylamino)-6-(2,4,6-trifluorophenyl)-7-chloroimidazo[1,2-a]pyrimidine] returned a melting point of 95.4 °C.
For the compound `CC1CCN(c2c(-c3c(F)cc(F)cc3F)c(Cl)nc3nccn23)CC1` [Compound 55, 5-(4-methylpiperidin-1-yl)-6-(2,4,6-trifluorophenyl)-7-chloroimidazo[1,2-a]pyrimidine], the melting point stood at 200.8 °C.
`Cc1cc(C)n(-c2c(-c3c(F)cc(F)cc3F)c(Cl)nc3nccn23)n1` [Compound 89, 5-(3,5-dimethylpyrazol-1-yl)-6-(2,4,6-trifluorophenyl)-7-chloroimidazo[1,2-a]pyrimidine] came in with a melting point of 150.4 °C.
In the case of `CC1CCN(c2c(-c3c(F)cccc3Cl)c(Cl)nc3nccn23)CC1` [Compound 182, 5-(4-methylpiperidin-1-yl)-6-(2-chloro-6-fluorophenyl)-7-chloroimidazo[1,2-a]pyrimidine], the melting point was 183.8 °C. The “areas of lesions on treated plant as % of infested areas on untreated groups” value with Sphaerotheca fuliginea is given as at most 1%. Also, in the data set on Botrytis cinerea, the “areas of lesions on treated plant as % of areas of lesions on untreated groups” value is reported as at most 1%.
In turn, `Cc1nc2nccn2c(N2CCC(C)CC2)c1-c1c(F)cccc1Cl` [Compound 428, 5-(4-methylpiperidin-1-yl)-6-(2-chloro-6-fluorophenyl)-7-methylimidazo[1,2-a]pyrimidine] gave a melting point of 144.5 °C.
